Assay results as given in ChEMBL document CHEMBL3352227, “Synthesis, antimycobacterial and antibacterial evaluation of l-[(1R, 2S)-2-fluorocyclopropyl]fluoroquinolone derivatives containing an oxime functional moiety” (Eur J Med Chem, 2014).
Values after ≈ are worked out from the molar mass of the structure shown.

system: Escherichia coli; test: Antibacterial activity against extended-spectrum beta-lactamase producing Escherichia coli 12-15 after 18 to 24 hrs by standard twofold serial dilution method; type: functional

Structure (SMILES)	MIC [µg/mL]
CO/N=C1/CN(c2cc3c(cc2F)c(=O)c(C(=O)O)cn3[C@@H]2C[C@@H]2F)[C@@H]1CN	> 128

system: Klebsiella pneumoniae; test: Antibacterial activity against extended-spectrum beta-lactamase producin Klebsiella pneumoniae 12-4 after 18 to 24 hrs by standard twofold serial dilution method; type: functional

Structure (SMILES)	MIC [µg/mL]
CO/N=C1/CN(c2cc3c(cc2F)c(=O)c(C(=O)O)cn3[C@@H]2C[C@@H]2F)[C@@H]1CN	16 (≈ 40.8 µM)

system: Klebsiella pneumoniae; test: Antibacterial activity against extended-spectrum beta-lactamase producin Klebsiella pneumoniae 12-7 after 18 to 24 hrs by standard twofold serial dilution method; type: functional

Structure (SMILES)	MIC [µg/mL]
CO/N=C1/CN(c2cc3c(cc2F)c(=O)c(C(=O)O)cn3[C@@H]2C[C@@H]2F)[C@@H]1CN	4 (≈ 10.2 µM)

system: Escherichia coli; test: Antibacterial activity against Escherichia coli 12-1 after 18 to 24 hrs by standard twofold serial dilution method; type: functional

Structure (SMILES)	MIC [µg/mL]
CO/N=C1/CN(c2cc3c(cc2F)c(=O)c(C(=O)O)cn3[C@@H]2C[C@@H]2F)[C@@H]1CN	0.5 (≈ 1.27 µM)

system: Staphylococcus aureus; test: Antibacterial activity against methicillin-sensitive Staphylococcus aureus 12-4 after 18 to 24 hrs by standard twofold serial dilution method; type: functional

Structure (SMILES)	MIC [µg/mL]
CO/N=C1/CN(c2cc3c(cc2F)c(=O)c(C(=O)O)cn3[C@@H]2C[C@@H]2F)[C@@H]1CN	0.25 (≈ 0.637 µM)

system: Staphylococcus aureus; test: Antibacterial activity against methicillin-sensitive Staphylococcus aureus 12-1 after 18 to 24 hrs by standard twofold serial dilution method; type: functional

Structure (SMILES)	MIC [µg/mL]
CO/N=C1/CN(c2cc3c(cc2F)c(=O)c(C(=O)O)cn3[C@@H]2C[C@@H]2F)[C@@H]1CN	0.5 (≈ 1.27 µM)

system: Klebsiella pneumoniae; test: Antibacterial activity against Klebsiella pneumoniae 12-1 after 18 to 24 hrs by standard twofold serial dilution method; type: functional

Structure (SMILES)	MIC [µg/mL]
CO/N=C1/CN(c2cc3c(cc2F)c(=O)c(C(=O)O)cn3[C@@H]2C[C@@H]2F)[C@@H]1CN	1 (≈ 2.55 µM)

system: Staphylococcus epidermidis; test: Antibacterial activity against methicillin-sensitive Staphylococcus epidermidis 12-6 after 18 to 24 hrs by standard twofold serial dilution method; type: functional

Structure (SMILES)	MIC [µg/mL]
CO/N=C1/CN(c2cc3c(cc2F)c(=O)c(C(=O)O)cn3[C@@H]2C[C@@H]2F)[C@@H]1CN	0.5 (≈ 1.27 µM)

system: Escherichia coli; test: Antibacterial activity against extended-spectrum beta-lactamase producing Escherichia coli 12-14 after 18 to 24 hrs by standard twofold serial dilution method; type: functional

Structure (SMILES)	MIC [µg/mL]
CO/N=C1/CN(c2cc3c(cc2F)c(=O)c(C(=O)O)cn3[C@@H]2C[C@@H]2F)[C@@H]1CN	128 (≈ 326 µM)

system: Streptococcus pneumoniae; test: Antibacterial activity against Streptococcus pneumoniae 12-18 after 18 to 24 hrs by standard twofold serial dilution method; type: functional

Structure (SMILES)	MIC [µg/mL]
CO/N=C1/CN(c2cc3c(cc2F)c(=O)c(C(=O)O)cn3[C@@H]2C[C@@H]2F)[C@@H]1CN	2 (≈ 5.1 µM)

system: Staphylococcus aureus; test: Antibacterial activity against methicillin-resistant Staphylococcus aureus 12-2 after 18 to 24 hrs by standard twofold serial dilution method; type: functional

Structure (SMILES)	MIC [µg/mL]
CO/N=C1/CN(c2cc3c(cc2F)c(=O)c(C(=O)O)cn3[C@@H]2C[C@@H]2F)[C@@H]1CN	64 (≈ 163 µM)

system: Staphylococcus epidermidis; test: Antibacterial activity against methicillin-sensitive Staphylococcus epidermidis 12-8 after 18 to 24 hrs by standard twofold serial dilution method; type: functional

Structure (SMILES)	MIC [µg/mL]
CO/N=C1/CN(c2cc3c(cc2F)c(=O)c(C(=O)O)cn3[C@@H]2C[C@@H]2F)[C@@H]1CN	8 (≈ 20.4 µM)

system: Klebsiella pneumoniae; test: Antibacterial activity against extended-spectrum beta-lactamase producin Klebsiella pneumoniae 12-14 after 18 to 24 hrs by standard twofold serial dilution method; type: functional

Structure (SMILES)	MIC [µg/mL]
CO/N=C1/CN(c2cc3c(cc2F)c(=O)c(C(=O)O)cn3[C@@H]2C[C@@H]2F)[C@@H]1CN	128 (≈ 326 µM)

system: Escherichia coli; test: Antibacterial activity against extended-spectrum beta-lactamase producing Escherichia coli 12-3 after 18 to 24 hrs by standard twofold serial dilution method; type: functional

Structure (SMILES)	MIC [µg/mL]
CO/N=C1/CN(c2cc3c(cc2F)c(=O)c(C(=O)O)cn3[C@@H]2C[C@@H]2F)[C@@H]1CN	128 (≈ 326 µM)

system: Staphylococcus aureus; test: Antibacterial activity against methicillin-sensitive Staphylococcus aureus 12-5 after 18 to 24 hrs by standard twofold serial dilution method; type: functional

Structure (SMILES)	MIC [µg/mL]
CO/N=C1/CN(c2cc3c(cc2F)c(=O)c(C(=O)O)cn3[C@@H]2C[C@@H]2F)[C@@H]1CN	0.5 (≈ 1.27 µM)

system: Staphylococcus aureus; test: Antibacterial activity against methicillin-resistant Staphylococcus aureus 12-5 after 18 to 24 hrs by standard twofold serial dilution method; type: functional

Structure (SMILES)	MIC [µg/mL]
CO/N=C1/CN(c2cc3c(cc2F)c(=O)c(C(=O)O)cn3[C@@H]2C[C@@H]2F)[C@@H]1CN	64 (≈ 163 µM)

system: Pseudomonas aeruginosa; test: Antibacterial activity against Pseudomonas aeruginosa 12-12 after 18 to 24 hrs by standard twofold serial dilution method; type: functional

Structure (SMILES)	MIC [µg/mL]
CO/N=C1/CN(c2cc3c(cc2F)c(=O)c(C(=O)O)cn3[C@@H]2C[C@@H]2F)[C@@H]1CN	1 (≈ 2.55 µM)

system: Escherichia coli; test: Antibacterial activity against Escherichia coli ATCC 25922 after 18 to 24 hrs by standard twofold serial dilution method; type: functional

Structure (SMILES)	MIC [µg/mL]
CO/N=C1/CN(c2cc3c(cc2F)c(=O)c(C(=O)O)cn3[C@@H]2C[C@@H]2F)[C@@H]1CN	0.06 (≈ 0.153 µM)

system: Staphylococcus aureus; test: Antibacterial activity against Staphylococcus aureus ATCC 25923 after 18 to 24 hrs by standard twofold serial dilution method; type: functional

Structure (SMILES)	MIC [µg/mL]
CO/N=C1/CN(c2cc3c(cc2F)c(=O)c(C(=O)O)cn3[C@@H]2C[C@@H]2F)[C@@H]1CN	0.5 (≈ 1.27 µM)

system: Klebsiella pneumoniae; test: Antibacterial activity against Klebsiella pneumoniae 12-2 after 18 to 24 hrs by standard twofold serial dilution method; type: functional

Structure (SMILES)	MIC [µg/mL]
CO/N=C1/CN(c2cc3c(cc2F)c(=O)c(C(=O)O)cn3[C@@H]2C[C@@H]2F)[C@@H]1CN	0.5 (≈ 1.27 µM)

system: Mycobacterium tuberculosis; test: Antimycobacterial activity against Mycobacterium tuberculosis H37Rv ATCC 27294 by MABA method; type: functional

Structure (SMILES)	MIC [µg/mL]
CO/N=C1/CN(c2cc3c(cc2F)c(=O)c(C(=O)O)cn3[C@@H]2C[C@@H]2F)[C@@H]1CN	1 (≈ 2.55 µM)

system: Klebsiella pneumoniae; test: Antibacterial activity against extended-spectrum beta-lactamase producin Klebsiella pneumoniae 12-3 after 18 to 24 hrs by standard twofold serial dilution method; type: functional

Structure (SMILES)	MIC [µg/mL]
CO/N=C1/CN(c2cc3c(cc2F)c(=O)c(C(=O)O)cn3[C@@H]2C[C@@H]2F)[C@@H]1CN	128 (≈ 326 µM)

system: Staphylococcus epidermidis; test: Antibacterial activity against methicillin-sensitive Staphylococcus epidermidis 12-1 after 18 to 24 hrs by standard twofold serial dilution method; type: functional

Structure (SMILES)	MIC [µg/mL]
CO/N=C1/CN(c2cc3c(cc2F)c(=O)c(C(=O)O)cn3[C@@H]2C[C@@H]2F)[C@@H]1CN	0.5 (≈ 1.27 µM)

system: Staphylococcus epidermidis; test: Antibacterial activity against methicillin-resistant Staphylococcus epidermidis 12-1 after 18 to 24 hrs by standard twofold serial dilution method; type: functional

Structure (SMILES)	MIC [µg/mL]
CO/N=C1/CN(c2cc3c(cc2F)c(=O)c(C(=O)O)cn3[C@@H]2C[C@@H]2F)[C@@H]1CN	16 (≈ 40.8 µM)

system: Staphylococcus aureus; test: Antibacterial activity against methicillin-resistant Staphylococcus aureus 12-4 after 18 to 24 hrs by standard twofold serial dilution method; type: functional

Structure (SMILES)	MIC [µg/mL]
CO/N=C1/CN(c2cc3c(cc2F)c(=O)c(C(=O)O)cn3[C@@H]2C[C@@H]2F)[C@@H]1CN	128 (≈ 326 µM)

system: Pseudomonas aeruginosa; test: Antibacterial activity against Pseudomonas aeruginosa 12-14 after 18 to 24 hrs by standard twofold serial dilution method; type: functional

Structure (SMILES)	MIC [µg/mL]
CO/N=C1/CN(c2cc3c(cc2F)c(=O)c(C(=O)O)cn3[C@@H]2C[C@@H]2F)[C@@H]1CN	64 (≈ 163 µM)

system: Staphylococcus epidermidis; test: Antibacterial activity against methicillin-sensitive Staphylococcus epidermidis 12-3 after 18 to 24 hrs by standard twofold serial dilution method; type: functional

Structure (SMILES)	MIC [µg/mL]
CO/N=C1/CN(c2cc3c(cc2F)c(=O)c(C(=O)O)cn3[C@@H]2C[C@@H]2F)[C@@H]1CN	1 (≈ 2.55 µM)

system: Staphylococcus aureus; test: Antibacterial activity against methicillin-sensitive Staphylococcus aureus 12-2 after 18 to 24 hrs by standard twofold serial dilution method; type: functional

Structure (SMILES)	MIC [µg/mL]
CO/N=C1/CN(c2cc3c(cc2F)c(=O)c(C(=O)O)cn3[C@@H]2C[C@@H]2F)[C@@H]1CN	0.5 (≈ 1.27 µM)

system: Klebsiella pneumoniae; test: Antibacterial activity against Klebsiella pneumoniae 12-4 after 18 to 24 hrs by standard twofold serial dilution method; type: functional

Structure (SMILES)	MIC [µg/mL]
CO/N=C1/CN(c2cc3c(cc2F)c(=O)c(C(=O)O)cn3[C@@H]2C[C@@H]2F)[C@@H]1CN	0.25 (≈ 0.637 µM)

system: Staphylococcus epidermidis; test: Antibacterial activity against methicillin-resistant Staphylococcus epidermidis 12-6 after 18 to 24 hrs by standard twofold serial dilution method; type: functional

Structure (SMILES)	MIC [µg/mL]
CO/N=C1/CN(c2cc3c(cc2F)c(=O)c(C(=O)O)cn3[C@@H]2C[C@@H]2F)[C@@H]1CN	16 (≈ 40.8 µM)

system: Escherichia coli; test: Antibacterial activity against extended-spectrum beta-lactamase producing Escherichia coli 12-2 after 18 to 24 hrs by standard twofold serial dilution method; type: functional

Structure (SMILES)	MIC [µg/mL]
CO/N=C1/CN(c2cc3c(cc2F)c(=O)c(C(=O)O)cn3[C@@H]2C[C@@H]2F)[C@@H]1CN	> 128

system: Streptococcus pneumoniae; test: Antibacterial activity against Streptococcus pneumoniae ATCC 49619 after 18 to 24 hrs by standard twofold serial dilution method; type: functional

Structure (SMILES)	MIC [µg/mL]
CO/N=C1/CN(c2cc3c(cc2F)c(=O)c(C(=O)O)cn3[C@@H]2C[C@@H]2F)[C@@H]1CN	0.5 (≈ 1.27 µM)
